Here are results for eight molecules from patent publication US4965280A, “Antifungal carbinols” (E. I. Du Pont de Nemours and Company, priority 1989, dated 1990).

In assay [1] the test system is Puccinia recondita. Description: Example G wheat leaf rust. The following applies: 100 PPM, read-out: disease control rating, Ex. G. The assay is classed as in vivo.
Assay [2] relates to Candida albicans ATCC 11651. Description: In vitro antifungal MIC, microtiter broth dilution. Conditions: Candida albicans, ATCC11651, 24 h, read-out: MIC values, C. albicans, 30°, 24 hours.
Assay [3] concerns Pyricularia oryzae. In words: whole plant or invertebrate. The assay is classed as in vivo. Conditions: Pyricularia oryzae, 120 h, read-out: disease control rating, Ex. E, 100 PPM.
Assay [4] has as its system Rhizoctonia solani. In words: Example F rice sheath blight. It counts as in vivo. Conditions: Rhizoctonia solani, 144 h, 100 PPM; read-out: disease control rating, Ex. F. The method in brief: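 Application rates were 100 or 20 ppm, delivered as a foliar spray to the point of run-off on rice seedlings. The formulation used 6% acetone in water with 250 ppm surfactant.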

Assay [5] has as its system Plasmorpara viticola. In words: Example I grape downy mildew. The assay is classed as in vivo. Conditions: read-out: disease control rating, Ex. I. The method in brief: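 Compounds were dissolved in acetone (6% of final volume) and suspended at 100 or 20 ppm in purified water with 250 ppm TREM 014 surfactant (polyhydric alcohol esters). Grape seedlings were sprayed with this suspension to run-off.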

The subject of assay [6] is Sclerotium rolfsii. Description: Example M southern blight. It counts as in vivo. Conditions: Agroathelia rolfsii, 336 h; 5 kg/ha; read-out: disease control rating, Ex. M. Here is the method: […] Seeds and soil were then inoculated with a mixture of sand, cereal and mycelium of the fungus Sclerotium rolfsii, causal agent of sourthern blight, and incubated in a growth chamber at 30° C. for 14 days. Disease ratings were then made.

The subject of assay [7] is Pythium aphanadermatum. In words: Example J cucumber damping off. The following applies: Pythium, 336 h; 5 kg/ha; read-out: disease control rating, Ex. J. The assay is classed as in vivo. In short, it runs like this: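 Seeds and soil were inoculated with a mix of sand, cereal and Pythium aphanadermatum mycelium, the fungus responsible for cucumber damping off. They were kept in a growth chamber at 30° C. for 14 days, and disease was then rated to assess control.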

Assay [8] concerns Rhizoctonia solani. Description: Example K cotton blight. The assay is classed as in vivo. Conditions: 336 h, 5 kg/ha, read-out: disease control rating, Ex. K. On the procedure:
[…] Seeds and soil were then inoculated with a mixture of sand, cereal and mycelium of the fungus Rhizoctonia solani, causal agent of cotton blight, and incubated in a growth chamber at 30° C. for 14 days. Disease ratings were then made.

The subject of assay [9] is Erysiphe graminis f. sp. tritici. Description: Example D wheat powdery mildew. The assay is classed as in vivo. Conditions: Blumeria graminis, 144 h; 100 PPM; read-out: disease control rating, Ex. D. In short, it runs like this:
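First, compound taken up in acetone, 6% of the end volume. Next, suspended in water with 250 ppm polyhydric alcohol esters at 100 or 20 ppm. Last, applied to wheat seedlings until run-off.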

Assay [10] concerns Venturia inaequalis. Description: Example A apple scab. It counts as in vivo. Conditions: 100 PPM, read-out: disease control rating, Ex. A. In short, it runs like this:
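First, compounds are taken up in acetone amounting to 6% of the final volume. Next, they are suspended in purified water with 250 ppm TREM 014 at 100 or 20 ppm. Finally, seedlings of apple are sprayed until run-off.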

Assay [11] relates to Fusarium oxysporum f. sp. cucumerinum. Description: Example L cucumber wilt. It counts as in vivo. Conditions: 336 h, 5 kg/ha, read-out: disease control rating, Ex. L. Here is the method: […] Seeds and soil were then inoculated with a mixture of sand, cereal and mycelium of the fungus Fusarium oxysporum f. sp. cucumerinum, causal agent of cucumber wilt, and incubated in a growth chamber at 30° C. for 14 days. Disease ratings were then made.

The test system of assay [12] is Cercosporidium personatum. In words: Example B Peanut Late Leafspot. The assay is classed as in vivo. Conditions: Nothopassalora personata; 100 PPM; read-out: disease control rating, Ex. B. In short, it runs like this:
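Dose 100 or 20 ppm; vehicle acetone 6% v/v final in water + 250 ppm surfactant; applied by spraying peanut seedlings to run-off.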

Assay [13] relates to Phytophthora infestans. Description: whole plant or invertebrate. The assay is classed as in vivo. Conditions: Phytophthora infestans, in Solanum lycopersicum, read-out: disease control rating, Ex. H, 100 PPM.
Assay [14] relates to Botrytis cinerea. In words: Example C bean grey mold. It counts as in vivo. Conditions: Botrytis cinerea, 24 h, 100 PPM; read-out: disease control rating, Ex. C. The method in brief: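 At 20 or 100 ppm, each compound was applied as an aqueous suspension (acetone 6% final; TREM 014 250 ppm) sprayed onto young broad bean plants to the point of run-off.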
Assay [15] concerns Aspergillus fumigatus ATCC 28214. In words: In vitro antifungal MIC, microtiter broth dilution. Conditions: Aspergillus fumigatus, ATCC28214, 24 h, read-out: MIC values, A. fumigatus, 30°, 24 hours.
Assay [16] relates to Candida albicans ATCC 11651. In words: In vivo systemic Candida infection in mice, primary assay. Conditions: Candida albicans, 150 mg/kg per day, read-out: % Survival. More on the design: species or system Candida albicans; CF-1 female mice. The method in brief: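 CF-1 female mice (20 g, 10 per group) were infected IV with 0.2 ml of 1×10^7/ml C. albicans ATCC 11651, then given test compound subcutaneously at 50 or 150 mg/kg/day at 1 and 6 h post-infection and once daily for three more days. Survival was followed for 21 days against infected untreated mice; ≥70% protection at 14 days was scored active.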

Converted amounts (≈) assume the structure as drawn. Read-outs that look alike come from different tables or passages of the source.

For the molecule `C=C(CO)C(O)(Cn1cncn1)c1ccc(-c2ccccc2)cc1` (centres unmarked) [Example 452], the pest or weed control at 100 ppm in assay [1] was 30%; in assay [3], 0%; in assay [4], 67%; in assay [5], 0%; in assay [9], 46%; in [10] it was 36%. Also, the pest or weed control at 100 ppm in [12] was determined as 0%; in assay [13] it was 0%; in [14] it was 54%. Also, the minimal inhibitory concentration (MIC) in assay [2] was > 100 µg/mL. The pest or weed control at 5000 g/ha in assay [6], in [7], in assay [8] and in assay [11] was 0% throughout.
With `C=C(CN(C)C)C(O)(Cn1cncn1)c1ccc(Br)cc1` (centres unmarked) [Example 455], the pest or weed control at 100 ppm in assay [1] was determined as 43%; in [3] it was 0%; in assay [4], 0%; in assay [5] it was 0%; in [9], 12%; in assay [10], 64%. The pest or weed control at 100 ppm was determined as 65% in assay [12], 0% in assay [13] and 0% in [14]. In assay [2], the MIC was determined as 25 µg/mL (≈ 71.2 µM). Moreover, the pest or weed control at 5000 g/ha in assay [6], in [7], in [8] and in assay [11] was 0% in each case.
Turning to `C=C(c1ccccc1)C(O)(Cn1cncn1)c1ccccc1F` (centres unmarked) [Example 594], the MIC in [15] and in assay [2] was 0.8 µg/mL (≈ 2.59 µM) each time. The pest or weed control at 100 ppm in [1] was determined as 100%; in [3], 2%; in assay [5] it was 79%; in [9], 77%; in [10] it was 86%; in [12] it was 100%. Besides, the results for the pest or weed control at 100 ppm in assay [13] and in [14] were 0% and 93%, respectively. Also, the pest or weed control at 5000 g/ha in assay [6] came out at 50%; in assay [7], 0%; in [8], 60%; in assay [11] it was 100%. Further, the responders at 150 mg/kg in assay [16] (ATCC11651, 168 h, day 7) turned out to be 70%; in assay [16] (ATCC11651, 336 h, day 14), 10%; in assay [16] (ATCC11651, 504 h, day 21), 0%.
Regarding `C=C(c1ccccc1)C(O)(Cn1cncn1)c1cc(Cl)cc(Cl)c1` (centres unmarked) [Example 603], the results for the minimal inhibitory concentration (MIC) in assay [15] and in assay [2] were > 100 µg/mL and 0.1 µg/mL (≈ 0.278 µM), respectively. The pest or weed control at 100 ppm was 95% in assay [1]; 0% in [3]; 0% in [5]; 69% in assay [9]; 44% in [10]; 97% in assay [12]. The pest or weed control at 100 ppm in [13] worked out at 0%; in assay [14], 91%. Moreover, the pest or weed control at 5000 g/ha in assay [6], in assay [7], in assay [8] and in assay [11] was 0% in each case. In addition, the responders at 150 mg/kg in assay [16] (ATCC11651, 168 h, day 7) stood at 10%; in assay [16] (ATCC11651, 336 h, day 14), 0%; in [16] (ATCC11651, 504 h, day 21) it was 0%.
For the molecule `C=C(c1ccccc1)C(O)(Cn1cncn1)c1ccc(F)c(Cl)c1` (centres unmarked) [Example 605], the minimum inhibitory concentration (MIC) in [15] worked out at 100 µg/mL (≈ 291 µM); in assay [2], 0.2 µg/mL (≈ 0.582 µM). In addition, the pest or weed control at 100 ppm in assay [1] was determined as 100%; in assay [3], 0%; in assay [5], 0%; in assay [9], 81%; in assay [10] it was 70%; in assay [12], 99%. In addition, the pest or weed control at 100 ppm turned out to be 0% in assay [13] and 32% in assay [14]. For the same molecule, the pest or weed control at 5000 g/ha in [6], in assay [7], in assay [8] and in assay [11] was 0% each time.
As to `C=C(c1cc(Cl)cc(Cl)c1)C(O)(Cn1cncn1)c1ccc(F)cc1F` (centres unmarked) [Example 815], the minimal inhibitory concentration (MIC) was > 100 µg/mL in assay [15] and 0.03 µg/mL (≈ 0.0757 µM) in assay [2]. Moreover, the pest or weed control at 100 ppm worked out at 97% in assay [1]; 2% in [3]; 65% in [5]; 62% in assay [9]; 40% in assay [10]; 98% in [12]. Also, the pest or weed control at 100 ppm in [13] and in assay [14] was 0% each time. The pest or weed control at 5000 g/ha in assay [6], in assay [7], in assay [8] and in assay [11] was 0% in each case.
As for `C=C(c1ccc(F)cc1)C(O)(Cn1ncnc1S)c1ccccc1F` (centres unmarked) [Example 1300], the MIC in assay [15] is 6.3 µg/mL (≈ 17.5 µM); in assay [2], ≤ 0.4 µg/mL. Besides, the pest or weed control at 100 ppm in [1] stood at 100%; in assay [3], 58%; in assay [4], 81%; in assay [5], 0%; in assay [9] it was 92%; in [10] it was 100%. Further, the results for the pest or weed control at 100 ppm in [12], in assay [13] and in assay [14] were 100%, 0% and 93%, respectively. Also, the pest or weed control at 5000 g/ha in assay [6], in assay [7], in assay [8] and in [11] was 0% throughout.
Consider `C=C(c1ccc(F)cc1)C(O)(Cn1ncnc1SCC#N)c1ccccc1F` (centres unmarked) [Example 1451], for which the MIC in assay [15] and in [2] was > 100 µg/mL in each case. The pest or weed control at 100 ppm stood at 93% in assay [1]; 2% in assay [3]; 79% in assay [5]; 77% in assay [9]; 86% in assay [10]; 84% in assay [12]. Also, the pest or weed control at 100 ppm in [13] came out at 0%; in assay [14], 48%. Further, the pest or weed control at 5000 g/ha in assay [6], in assay [7], in [8] and in [11] was 0% in each case.
